What all share (format): cell-based
One assay addresses T1, human TLR9 (Homo sapiens, UniProt Q9NR96).
T1 construct: host or cells: HEK-Blue cells
T1 sequence (Q9NR96 26-1032): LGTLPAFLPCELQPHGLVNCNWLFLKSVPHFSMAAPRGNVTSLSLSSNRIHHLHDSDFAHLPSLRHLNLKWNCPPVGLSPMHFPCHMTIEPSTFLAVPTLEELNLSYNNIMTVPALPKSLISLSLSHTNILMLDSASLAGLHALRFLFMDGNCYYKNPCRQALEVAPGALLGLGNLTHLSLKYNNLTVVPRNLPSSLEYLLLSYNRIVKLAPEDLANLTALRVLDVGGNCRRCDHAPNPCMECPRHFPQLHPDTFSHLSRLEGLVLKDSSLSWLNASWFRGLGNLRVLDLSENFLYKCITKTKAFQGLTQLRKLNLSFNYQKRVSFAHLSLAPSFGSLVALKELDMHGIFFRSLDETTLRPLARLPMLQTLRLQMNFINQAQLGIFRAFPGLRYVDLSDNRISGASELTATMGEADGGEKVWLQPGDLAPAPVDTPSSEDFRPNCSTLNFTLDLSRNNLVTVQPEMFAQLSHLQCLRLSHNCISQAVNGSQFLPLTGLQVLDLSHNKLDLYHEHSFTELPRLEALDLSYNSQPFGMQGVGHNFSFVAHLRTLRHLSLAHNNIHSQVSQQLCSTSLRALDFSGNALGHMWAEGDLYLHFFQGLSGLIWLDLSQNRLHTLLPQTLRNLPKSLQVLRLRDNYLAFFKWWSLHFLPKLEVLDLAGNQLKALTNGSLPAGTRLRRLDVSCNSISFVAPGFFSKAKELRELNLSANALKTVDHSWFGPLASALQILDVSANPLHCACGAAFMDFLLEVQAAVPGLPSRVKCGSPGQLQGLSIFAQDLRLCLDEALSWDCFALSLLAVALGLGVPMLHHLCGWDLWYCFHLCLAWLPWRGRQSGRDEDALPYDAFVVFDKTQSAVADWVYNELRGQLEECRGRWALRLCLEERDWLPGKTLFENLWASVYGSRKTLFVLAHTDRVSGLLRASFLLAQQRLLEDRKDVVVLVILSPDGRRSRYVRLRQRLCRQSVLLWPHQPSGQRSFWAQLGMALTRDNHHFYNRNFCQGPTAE
Description: TLR9 inhibition reporter assay (HEK-Blue SEAP reporter). The conditions noted are these: HEK-Blue cells overexpressing human TLR9; ODN2006 5 nM; 22 hour incubation. Put shortly: (§1)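 Human TLR7/8/9 HEK-Blue reporter lines; dose range 0.05 nM–50 μM; 30 min RT preincubation; stimulus gardiquimod 7.5 μM / R848 15.9 μM / ODN2006 5 nM respectively; 22 h, 37 °C; SEAP detected colorimetrically.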

In another assay the target is T2, human TLR8 (Homo sapiens, UniProt Q9NR97).
T2 construct: host or cells: HEK-Blue cells
T2 sequence (Q9NR97 27-1041): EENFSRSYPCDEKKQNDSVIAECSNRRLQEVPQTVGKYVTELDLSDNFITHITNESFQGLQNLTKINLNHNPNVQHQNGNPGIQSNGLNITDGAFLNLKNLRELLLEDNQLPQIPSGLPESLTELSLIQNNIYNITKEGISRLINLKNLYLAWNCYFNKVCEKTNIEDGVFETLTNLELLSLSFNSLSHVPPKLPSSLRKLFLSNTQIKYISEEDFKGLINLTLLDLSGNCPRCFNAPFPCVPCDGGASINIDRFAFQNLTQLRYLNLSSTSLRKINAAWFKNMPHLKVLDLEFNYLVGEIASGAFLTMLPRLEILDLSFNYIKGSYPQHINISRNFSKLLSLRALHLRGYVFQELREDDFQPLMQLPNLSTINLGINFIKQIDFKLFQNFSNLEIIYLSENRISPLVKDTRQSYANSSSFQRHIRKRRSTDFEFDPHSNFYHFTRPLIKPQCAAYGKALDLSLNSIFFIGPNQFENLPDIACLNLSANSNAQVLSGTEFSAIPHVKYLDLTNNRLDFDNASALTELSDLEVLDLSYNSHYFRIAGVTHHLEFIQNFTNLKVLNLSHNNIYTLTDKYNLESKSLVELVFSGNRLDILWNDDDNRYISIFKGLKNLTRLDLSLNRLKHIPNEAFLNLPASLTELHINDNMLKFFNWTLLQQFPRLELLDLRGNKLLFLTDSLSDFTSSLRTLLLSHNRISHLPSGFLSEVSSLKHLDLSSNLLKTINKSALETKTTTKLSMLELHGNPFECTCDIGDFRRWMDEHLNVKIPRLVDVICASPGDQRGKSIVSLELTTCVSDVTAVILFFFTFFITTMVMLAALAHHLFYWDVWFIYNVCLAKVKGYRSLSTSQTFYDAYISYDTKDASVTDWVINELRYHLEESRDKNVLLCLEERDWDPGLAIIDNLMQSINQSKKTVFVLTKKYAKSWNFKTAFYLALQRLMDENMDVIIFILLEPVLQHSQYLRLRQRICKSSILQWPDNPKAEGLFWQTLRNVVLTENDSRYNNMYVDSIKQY
Description: TLR8 inhibition reporter assay (HEK-Blue SEAP reporter). The following applies: HEK-Blue cells overexpressing human TLR8; R848 15.9 μM; 22 hour incubation. Put shortly: as §1

The next assay addresses T3, human TLR7 (Homo sapiens, UniProt Q9NYK1).
T3 construct: host or cells: HEK-Blue cells
T3 sequence (Q9NYK1 27-1049): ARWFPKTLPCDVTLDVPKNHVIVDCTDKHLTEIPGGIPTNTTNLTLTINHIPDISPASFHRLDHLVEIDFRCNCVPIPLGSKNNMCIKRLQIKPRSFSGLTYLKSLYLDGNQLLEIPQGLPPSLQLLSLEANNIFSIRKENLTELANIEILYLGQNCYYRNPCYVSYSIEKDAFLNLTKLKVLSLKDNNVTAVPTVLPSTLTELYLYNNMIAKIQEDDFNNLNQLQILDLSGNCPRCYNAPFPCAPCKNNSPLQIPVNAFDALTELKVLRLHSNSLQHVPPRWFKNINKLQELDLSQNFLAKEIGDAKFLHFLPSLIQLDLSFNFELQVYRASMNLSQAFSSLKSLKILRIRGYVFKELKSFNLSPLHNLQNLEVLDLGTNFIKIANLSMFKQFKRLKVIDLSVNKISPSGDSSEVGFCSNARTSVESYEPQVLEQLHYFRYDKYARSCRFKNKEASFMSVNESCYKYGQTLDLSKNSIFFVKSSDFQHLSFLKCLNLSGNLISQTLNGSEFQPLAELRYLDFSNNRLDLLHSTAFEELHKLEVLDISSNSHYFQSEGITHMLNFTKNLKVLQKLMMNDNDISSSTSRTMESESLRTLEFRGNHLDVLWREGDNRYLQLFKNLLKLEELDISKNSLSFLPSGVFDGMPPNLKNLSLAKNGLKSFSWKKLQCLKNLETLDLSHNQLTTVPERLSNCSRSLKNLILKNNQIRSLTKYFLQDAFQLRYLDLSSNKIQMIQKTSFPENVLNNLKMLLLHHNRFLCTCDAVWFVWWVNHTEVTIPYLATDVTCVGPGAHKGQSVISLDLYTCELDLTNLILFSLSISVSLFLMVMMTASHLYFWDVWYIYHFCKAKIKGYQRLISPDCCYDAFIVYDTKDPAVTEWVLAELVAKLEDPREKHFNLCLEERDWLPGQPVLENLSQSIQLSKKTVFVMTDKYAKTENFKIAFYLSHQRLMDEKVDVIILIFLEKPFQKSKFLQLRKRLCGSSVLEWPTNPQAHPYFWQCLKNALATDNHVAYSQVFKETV
Description: TLR7 inhibition reporter assay (HEK-Blue SEAP reporter). The conditions noted are these: HEK-Blue cells overexpressing human TLR7; gardiquimod 7.5 μM; 22 hour incubation. Put shortly: as §1

pIC50: −log10 of the molar value.

Consider `COc1ccc(-c2[nH]c3ccc(N4CCN(C5CCCN(C(C)C)CC5)CC4)cc3c2C(C)C)cc1OC` (stereo not drawn) [Example 122, 2-(3,4-dimethoxyphenyl)-3-isopropyl-5-(4-(1-isopropylazepan-4-yl)piperazin-1-yl)-1H-indole], for which the pIC50 is 6.21 against human TLR9, 8.47 against human TLR8 and 7.38 at human TLR7.

Regarding `CNC1(CC#N)CCN(c2ccc3[nH]c(-c4ccc(OC)c(OC)c4)c(C(C)C)c3c2)CC1` [Example 112, 2-(1-(2-(3,4-dimethoxyphenyl)-3-isopropyl-1H-indol-5-yl)-4-(methylamino)piperidin-4-yl)acetonitrile], the figures for the pIC50 on human TLR9, at human TLR8 and against human TLR7 were 5.21, 8.03 and 7.21, respectively.

Consider `COc1ccc(-c2[nH]c3ccc(N4CCCC5CN(Cc6ccccc6)CC54)cc3c2C(C)C)cc1OC` (stereo not drawn) [Example 118, 6-benzyl-1-(2-(3,4-dimethoxyphenyl)-3-isopropyl-1H-indol-5-yl)octahydro-1H-pyrrolo[3,4-b]pyridine], for which the pIC50 against human TLR9 was 5.75; against human TLR8, 6.49; at human TLR7, 5.95.

Consider `CCc1c(-c2ccnc(OC)c2)[nH]c2ccc(N3CCN(C4CCN(CC(C)C)CC4)CC3)cc12` [Example 160, 3-ethyl-5-(4-(1-isobutylpiperidin-4-yl)piperazin-1-yl)-2-(2-methoxypyridin-4-yl)-1H-indole], for which the pIC50 at human TLR9 is 6.33; against human TLR8 it was 7.85; at human TLR7, 6.97.

In the case of `COc1ccc(-c2[nH]c3ccc(NC4CCC(NC5CCN(C)CC5)CC4)cc3c2C(C)C)cc1OC` (single isomer, unassigned) [Example 40, N1-(2-(3,4-dimethoxyphenyl)-3-isopropyl-1H-indol-5-yl)-N4-(1-methylpiperidin-4-yl)cyclohexane-1,4-diamine], the negative logarithm of the IC50 (pIC50) on human TLR9 is 6.24; against human TLR8, 6.77; against human TLR7, 7.37.

Take `COc1ccc(-c2[nH]c3ccc(N4CCC(N)(CC#N)CC4)cc3c2C(C)C)cc1OC` [Example 109, 2-(4-amino-1-(2-(3,4-dimethoxyphenyl)-3-isopropyl-1H-indol-5-yl)piperidin-4-yl)acetonitrile]: the results for the pIC50 against human TLR9, against human TLR8 and at human TLR7 were 4.82, 6.68 and 7.55, respectively.

On to `COc1ccc(-c2[nH]c3ccc(N4CCC(OC5CCNCC5)CC4)cc3c2C(C)C)cc1OC` [Example 133, 2-(3,4-dimethoxyphenyl)-3-isopropyl-5-(4-(piperidin-4-yloxy)piperidin-1-yl)-1H-indole], for which the pIC50 was 6.47 against human TLR9, 7.26 on human TLR8 and 7.80 on human TLR7.

With `COc1ccc(-c2[nH]c3ccc(N4CCC(N5CC(O)CC5=O)CC4)cc3c2C(C)C)cc1OC` (stereo not drawn) [Example 116, 1-(1-(2-(3,4-dimethoxyphenyl)-3-isopropyl-1H-indol-5-yl)piperidin-4-yl)-4-hydroxypyrrolidin-2-one], the pIC50 on human TLR9 is 4.72; against human TLR8 it was 7.03; on human TLR7, 6.03.

In the case of `COc1ccc(-c2[nH]c3ccc(NC(=O)[C@@H](N)c4ccccc4)cc3c2C(C)C)cc1OC` [Example 25, (S)-2-amino-N-(2-(3,4-dimethoxyphenyl)-3-isopropyl-1H-indol-5-yl)-2-phenylacetamide], the pIC50 on human TLR9 is less than 4.30; against human TLR8 it was 7.00; against human TLR7, 6.21.

For the compound `CCc1c(-c2ccnc(C)c2)[nH]c2ccc(N3CCN(C4CCN(CC)CC4)CC3)cc12` [Example 142, 3-ethyl-5-(4-(1-ethylpiperidin-4-yl)piperazin-1-yl)-2-(2-methylpyridin-4-yl)-1H-indole], the negative-log IC50 (pIC50) was 6.65 against human TLR9, 5.10 at human TLR8 and 5.44 at human TLR7.

As to `Cc1cc(-c2[nH]c3ccc(N4CCC(N5CCN(C(C)C)CC5)C4=O)cc3c2C(C)C)cc(C)n1` (single isomer, unassigned) [Example 5, 1-(2-(2,6-dimethylpyridin-4-yl)-3-isopropyl-1H-indol-5-yl)-3-(4-isopropylpiperazin-1-yl) pyrrolidin-2-one], the negative logarithm of the IC50 (pIC50) was 6.22 on human TLR9, 8.24 against human TLR8 and 8.19 against human TLR7.

Regarding `COc1ccc(-c2[nH]c3ccc(NC4CCC(N5CCN(c6ccncc6)CC5)CC4)cc3c2C(C)C)cc1OC` (stereo not drawn) [Example 59, 2-(3,4-dimethoxyphenyl)-3-isopropyl-N-(4-(4-(pyridin-4-yl)piperazin-1-yl)cyclohexyl)-1H-indol-5-amine], the pIC50 against human TLR9 is 6.66; at human TLR8 it was 6.97; against human TLR7 it was 6.71.

With `Cc1cc(-c2[nH]c3ccc(N4CCC(N(C)CCN)C4=O)cc3c2C(C)C)ccn1` (stereo not drawn) [Example 2, 3-((2-aminoethyl)(methyl)amino)-1-(3-isopropyl-2-(2-methylpyridin-4-yl)-1H-indol-5-yl)pyrrolidin-2-one], the values for the negative logarithm of the IC50 (pIC50) against human TLR9, on human TLR8 and at human TLR7 were 5.30, 7.55 and 7.00, respectively.

(Values after patent publication US11306092B2, “Amino indole compounds useful as TLR inhibitors” (BRISTOL-MYERS SQUIBB COMPANY, priority 2017, dated 2022).)
